Data reported in patent US20090036555A1, “Stabilization of iodine biocides” (priority 2005, published 2009).

Assay: Storage stability of IPBC in Dowanol TPM solution with cobalt dryer and stabilizer, IPBC amount by HPLC
Assay type: physicochemical
Settings: solution in Dowanol TPM with 10% by weight IPBC, 5% by weight Octasoligen-Cobalt 8, 5% by weight stabilizer; for Amount of IPBC (2 weeks, 40° C.): after two weeks storage at 40° C.; for Amount of IPBC (start): at the beginning
Protocol: A solution is prepared in Dowanol TPM (tripropylene glycol methyl ether), containing 10% by weight of iodopropargyl butylcarbamate, 5% by weight of Octasoligen-Cobalt 8 (Borchers, Langenfeld, Germany) and 5% by weight of the stabilizer specified in Table 1. The compositions are stored at 40° C. The amount of IPBC was determined by means of HPLC at the beginning and after two weeks.

Compound	Amount of IPBC (2 weeks, 40° C.) [%]	Amount of IPBC (start) [%]
CC(C)(C)CC(C)(C)c1ccc(O)c(-n2nc3ccccc3n2)c1 [Example 3]	9.5	9.9
Cc1ccc(O)c(-n2nc3ccccc3n2)c1 [Example 4]	9.3	9.9
CC(C)(C)c1ccc(O)c(-n2nc3ccccc3n2)c1 [Example 5]	9.8	9.8

Second part, the compound after the results:

Amount of IPBC (2 weeks, 40° C.) [%]	Amount of IPBC (start) [%]	Compound
10.4	11.3	OCCc1ccc(O)c(-n2nc3ccccc3n2)c1 [Example 1]
9.3	9.9	C=C(C)C(=O)OCCc1ccc(O)c(-n2nc3ccccc3n2)c1 [Example 2]
